Patent publication US10023591B2, “Heterocyclic derivatives and use thereof” (C&C RESEARCH LABORATORIES, priority 2014, dated 2018)
Like-named read-outs stand apart in the source and are kept apart here.

How the values were obtained:
[1] = test system: NCI-N87 stomach cancer cell line; experiment: Cell growth inhibition assay, NCI-N87 (CellTiter-Glo); type: cell-based; details: Homo sapiens; NCI-N87, 5,000 cells/well, 96 hours
Method: The inhibitory effects of the compounds of the present invention against the growth of cancer cells were evaluated as shown below. The cancer cell lines including prostate cancer cell lines (LNCaP, DU-145), stomach cancer cell line (NCI-N87), and breast cancer cell lines (MDA-MB-468) were cultured under the protocol provided by each supplier. A medium supplemented with 10 ng/mL of IL-6 was used for LNCaP, a prostate cancer cell line, when treated with a drug. Each type of cells to be used in experiments was sub-cultured in a 96-well plate by counting the exact number of cells using Tali™ Image-based Cytometer (Life Technologies). In a 96-well plate, DU-145 was employed with 3,000 cells/well; NCI-N87 was employed with 5,000 cells/well; and LNCaP and MDA-MB-468 were employed with 10,000 cells/well. The cells were treated with the compounds listed in Examples which were diluted in various concentrations. Upon completion of the compounds treatment, LNCaP, DU-145, NCI-N87 cells were cultured at 37° C. under 5% CO2 for 96 hours, and MDA-MB-468 cells were cultured at 37° C. in air for 96 hours. Subsequently, the cells were observed under microscope and drug precipitation and particular findings were investigated and recorded. And then, the 96-well plate was placed at room temperature for 30 minutes, added with 20 pt/well of CellTiter-Glo solution (Cat No. G7573, Promega) and shaken for 10 minutes, followed by being subjected to the measurement using PHERAstar™ microplate reader (BMG LABTECH) according to the supplier's general luminometer protocol. Wells where only culture liquid added without cell plating were used as a negative control, whereas wells where culture liquid containing 0.1% DMSO instead of the compounds listed in Examples were used as a positive control.

STAT1 = STAT1 reporter gene assay (luciferase), U2OS stable cell line pGL4-STAT1-TA-luc, IFN-γ stimulation; type: cell-based, human; details: IFN-γ 50 ng/mL, 8 hours, read-out: IC50 (μM) pSTAT1
Method: 1-2) Experiment on the Inhibition of STAT1 Activity
A human osteosarcoma cell line (U2OS stable cell line; pGL4-STAT1-TA-luc), which contains a stably operating STAT1 promoter, was cultured in McCoy 5′A medium (Cat No. 16600, Life Technologies) containing 10% FBS (Cat No. SH30396, Thermo Scientific) and 1000 μg/mL G418 solution (Cat No. 04 727 894 001, Roche). The reporter gene assay using U2OS stable cell line was performed in McCoy 5′A medium containing 10% FBS without G-418 solution. U2OS stable cells were plated in two (2) white 96-well plates with 25,000 cells/50 pt in each well. The cells were cultured at 37° C., under 5% CO2 for 24 hours, and then treated with the compounds listed in Examples which were diluted in various concentrations. Subsequently, IFN-γ was added to each well with a final concentration of 50 ng/mL. Upon completion of the treatment with the compounds and IFN-γ, the cells were cultured at 37° C., under 5% CO2 for 8 hours. The plates were observed under microscope and drug precipitation and particular findings were investigated and recorded.
(§1) The luciferase assay and the cell viability assay were performed respectively with one of two plates. For the luciferase assay, the liquid media in the 96-well plate was removed, and then, 20 μL of passive cell lysis buffer was added to each well. After shaking the plate for 30 minutes, luciferase activities of each well were measured in a PHERAstar™ microplate reader (BMG LABTECH) using a luciferase assay system (Cat No. E1501, Promega). For the cell viability assay, the 96-well plate was placed at room temperature for 30 minutes, added with 20 μL/well of CellTiter-Glo solution (Cat No. G7573, Promega), and shaken for 10 minutes in order to measure cytotoxicity caused by the compounds listed in Examples with a PHERAstar™ microplate reader (BMG LABTECH). Wells without 0.1% DMSO and stimulation were used as a negative control and wells with 0.1% DMSO and stimulation were used as a positive control.
(§2) The results of evaluation on the inhibitory effect of the compounds listed in the Examples on the dimerization of STAT3 and STAT1 obtained via the STAT3 and STAT1 reporter gene assays are shown in Table 9 below.

STAT3 = STAT3 reporter gene assay (luciferase), LNCaP stable cell line pSTAT3-TA-luc, IL-6 stimulation; type: cell-based, human
Method: 1-1) Experiment on the Inhibition of STAT3 Activity
A human prostate cancer cell line (LNCaP stable cell line; plasmid pSTAT3-TA-luc), which contains a stably operating STAT3 promoter, was cultured in RPMI1640 medium (Cat No. 11875, Life Technologies) containing 10% fetal bovine serum (FBS) (Cat No. SH30396, Thermo Scientific) and 150 μg/mL G-418 solution (Cat No. 04 727 894 001, Roche). The reporter gene assay using LNCaP stable cell line was performed in RPMI1640 medium containing 3% DCC-FBS without G-418 solution. LNCaP stable cells were plated in two (2) white 96-well plates with 30,000 cells/50 μL in each well. The cells were cultured at 37° C., under 5% CO2 for 24 hours, and then treated with the compounds listed in Examples which were diluted in various concentrations. Subsequently, IL-6 was added to each well with a final concentration of 10 ng/mL. Upon completion of the treatment with the compounds and IL-6, the cells were cultured at 37° C., under 5% CO2 for 24 hours. The plates were observed under microscope and drug precipitation and particular findings were investigated and recorded.
as §1, with “one of the two plates.” for “one of two plates.”, “then, 20 μL, of passive” for “then, 20 μL of passive”
as §2

Molecule | IC50 [1] | IC50 (STAT1; Homo sapiens) | IC50 (STAT3; Homo sapiens) | IC50 (STAT1) | IC50 (STAT3)
CC#CCOc1cc(OC(F)(F)F)cc(C(C)(C)c2cc(Cl)cc(NC(=O)c3cc4cc(C(C)(C)S(C)(=O)=O)ccc4s3)c2)c1 [Example 10, N-(3-(2-(3-(but-2-yn-1-yloxy)-5-(trifluoromethoxy)phenyl)propan-2-yl)-5-chlorophenyl)-5-(2-(methylsulfonyl)propan-2-yl)benzo[b]thiophene-2-carboxamide] | 0.01 µM | > 50 µM | 0.018 µM |  | 
CC(C)COc1cc(OC(F)(F)F)cc(C(C)(C)c2cc(Cl)cc(NC(=O)c3cc4cc(C(C)(C)S(C)(=O)=O)ccc4s3)c2)c1 [Example 11, N-(3-chloro-5-(2-(3-isobutoxy-5-(trifluoromethoxy)phenyl)propan-2-yl)phenyl)-5-(2-(methylsulfonyl)propan-2-yl)benzo[b]thiophene-2-carboxamide] | 0.011 µM | > 50 µM | 0.0021 µM |  | 
CC(C)(c1cc(Cl)cc(NC(=O)c2cc3cc(C(C)(C)S(C)(=O)=O)ccc3s2)c1)c1cc(OCC(F)(F)F)cc(OC(F)(F)F)c1 [Example 12, N-(3-chloro-5-(2-(3-(2,2,2-trifluoroethoxy)-5-(trifluoromethoxy)phenyl)propan-2-yl)phenyl)-5-(2-(methylsulfonyl)propan-2-yl)benzo[b]thiophene-2-carboxamide] | 0.025 µM | > 50 µM | 0.002 µM |  | 
CC(C)(c1cc(Cl)cc(NC(=O)c2cc3cc(C(C)(C)S(C)(=O)=O)ccc3s2)c1)c1cc(OCC(F)F)cc(OC(F)(F)F)c1 [Example 13, N-(3-chloro-5-(2-(3-(2,2-difluoroethoxy)-5-(trifluoromethoxy)phenyl)propan-2-yl)phenyl)-5-(2-(methylsulfonyl)propan-2-yl)benzo[b]thiophene-2-carboxamide] | 0.028 µM | > 50 µM | 0.01 µM |  | 
CC(C)(c1ccc2sc(C(=O)Nc3cc(Cl)nc(Oc4ccc(Cl)nc4)c3)cc2c1)S(C)(=O)=O [Example 65, N-(2-chloro-6-((6-chloropyridin-3-yl)oxy)pyridin-4-yl)-5-(2-(methylsulfonyl)propan-2-yl)benzo[b]thiophene-2-carboxamide] |  | > 50 µM | 0.079 µM |  | 
CC(C)(c1ccc2sc(C(=O)Nc3cc(Oc4ccc(Cl)cc4)nc(Cl)n3)cc2c1)S(C)(=O)=O [Example 75, N-(2-chloro-6-(4-chlorophenoxy)pyrimidin-4-yl)-5-(2-(methylsulfonyl)propan-2-yl)benzo[b]thiophene-2-carboxamide] |  | > 50 µM | 0.24 µM |  | 
CC(C)(c1ccc2sc(C(=O)Nc3cc(Cl)nc(Oc4ccc(Cl)cn4)c3)cc2c1)S(C)(=O)=O [Example 85, N-(2-chloro-6-((5-chloropyridin-2-yl)oxy)pyridin-4-yl)-5-(2-(methylsulfonyl)propan-2-yl)benzo[b]thiophene-2-carboxamide] |  | > 50 µM | 0.11 µM |  | 

The remaining lines, values ahead:

IC50 [1] | IC50 (STAT1; Homo sapiens) | IC50 (STAT3; Homo sapiens) | IC50 (STAT1) | IC50 (STAT3) | Molecule
0.02 µM | > 50 µM | 0.00065 µM |  |  | CC(C)Oc1cc(OC(F)(F)F)cc(C(C)(C)c2cc(Br)cc(NC(=O)c3cc4cc(C(C)(C)S(C)(=O)=O)ccc4s3)c2)c1 [Example 9, N-(3-bromo-5-(2-(3-isopropoxy-5-(trifluoromethoxy)phenyl)propan-2-yl)phenyl)-5-(2-(methylsulfonyl)propan-2-yl)benzo[b]thiophene-2-carboxamide]
 | 3.1 µM | 0.39 µM |  |  | CC(C)(c1ccc2sc(C(=O)Nc3cc(Cl)nc(Oc4ccc(Cl)cc4)n3)cc2c1)S(C)(=O)=O [Example 76, N-(6-chloro-2-(4-chlorophenoxy)pyrimidin-4-yl)-5-(2-(methylsulfonyl)propan-2-yl)benzo[b]thiophene-2-carboxamide]
 | > 50 µM | 0.0097 µM |  |  | CC#Cc1cc(OC(F)(F)F)cc(C(C)(C)c2cc(Cl)cc(NC(=O)c3cc4cc(C(C)(C)S(C)(=O)=O)ccc4s3)c2)c1 [Example 87, N-(3-chloro-5-(2-(3-(prop-1-yn-1-yl)-5-(trifluoromethoxy)phenyl)propan-2-yl)phenyl)-5-(2-(methylsulfonyl)propan-2-yl)benzo[b]thiophene-2-carboxamide]
 | > 50 µM | 0.011 µM |  |  | COc1cc(OC(F)(F)F)cc(C(C)(C)c2cc(NC(=O)c3cc4cc(C(C)(C)S(C)(=O)=O)ccc4s3)cc(Cl)n2)c1 [Example 90, N-(2-chloro-6-(2-(3-methoxy-5-(trifluoromethoxy)phenyl)propan-2-yl)pyridin-4-yl)-5-(2-(methylsulfonyl)propan-2-yl)benzo[b]thiophene-2-carboxamide]
 | > 50 µM | 0.0051 µM |  |  | COc1cc(OC(F)(F)F)cc(C(C)(C)c2cc(Cl)cc(NC(=O)c3cc4cc(C(C)(C)S(C)(=O)=O)ccc4s3)n2)c1 [Example 91, N-(4-chloro-6-(2-(3-methoxy-5-(trifluoromethoxy)phenyl)propan-2-yl)pyridin-2-yl)-5-(2-(methylsulfonyl)propan-2-yl)benzo[b]thiophene-2-carboxamide]
 | 14.5 µM | 2.1 µM |  |  | CC(C)(c1ccc2sc(C(=O)Nc3cc(Cl)nc(OC4CCN5CCCC5C4)c3)cc2c1)S(C)(=O)=O (centres unmarked) [Example 102, N-(2-chloro-6-((octahydroindolizin-7-yl)oxy)pyridin-4-yl)-5-(2-(methylsulfonyl)propan-2-yl)benzo[b]thiophene-2-carboxamide]
 | 8.6 µM | 6 µM |  |  | COC(=O)c1cc(Oc2cc(NC(=O)c3cc4cc(C(C)(C)S(C)(=O)=O)ccc4s3)cc(Cl)n2)no1 [Example 118, methyl 3-((6-chloro-4-(5-(2-(methylsulfonyl)propan-2-yl)benzo[b]thiophene-2-carboxamido)pyridin-2-yl)oxy)isoxazole-5-carboxylate]
 |  |  | > 50 µM | 0.0022 µM | N-(3-chloro-5-(2-(3-chloro-5-methoxyphenyl)propan-2-yl)phenyl)-5-(2-(methylsulfonyl)propan-2-yl)benzo[b]thiophene-2-carboxamide [Example 55]
